What is called half-life is how long it takes for the measured level to halve. A higher half-life goes with slow decline. As a reminder, the hepatocyte CLint is a measure of how fast metabolising enzymes remove a compound, apart from limits set by blood flow. As a reminder, the efflux ratio is the permeability from basolateral to apical divided by that in the opposite direction, in the common usage. Usually microsomal CLint stands for the rate of metabolic loss divided by the concentration. A higher microsomal CLint goes with faster metabolism. As a reminder, the AUC(0-inf) is total exposure, with the tail of the curve extrapolated. Higher therefore signals high exposure. A word on the AUC(0-t): it is the area under the concentration-time curve up to a stated or last time point. The low end stands for low exposure, the high end for high exposure. What is called Vd is a proportionality between amount in the body and measured concentration, not a real space. High values mean wide distribution into tissue, low ones little distribution into tissue. By Cmax is commonly meant the highest concentration seen after dosing. As a reminder, the Tmax is the time at which the peak concentration occurs. One may read the Vss as the apparent volume that relates the amount in the body to the concentration in plasma or blood. In general, fraction unbound refers to the share of the substance not bound to proteins or other matrix. Low readings indicate extensive binding, high ones weak binding. A word on the IC50: it is the concentration at which inhibition is half-maximal.

Results on three compounds are retold here after PMC10044449 (Xenobiotica; the fate of foreign compounds in biological …, 2022).

A short description of data set [1]: Hepatocyte metabolic stability. The settings on record: human, hepatocytes.
Data set [2] in a line: Caco-2 bidirectional permeability. The note with it: human, Caco-2, pH 7.4. (In general: Caco-2 monolayers are a common model of the intestinal barrier.)
Another data set concerns Caco-2 cells. The data set can be described thus: Caco-2 bidirectional permeability. The settings on record: Caco-2, without inhibitor mix.
Data set [3] is described as follows: Prediction of in vivo CLH from in vitro CLint. The settings on record: for Predicted in vivo CLH: mouse. It counts as in vitro ADME, mouse.
The nature of data set [4]: Prediction of in vivo CLH from in vitro CLint. In kind it is in vitro ADME.
A short description of data set [5]: Liver microsomal metabolic stability. In kind it is in vitro ADME, mouse. Background: Liver microsomes are vesicles of endoplasmic reticulum, rich in cytochrome P450 enzymes.
Data set [6] can be described thus: Efficacy in a mouse model. It counts as in vivo. The note with it: corresponds to ca. 0.4 mg/kg in mice.
The nature of data set [7]: Liver microsomal metabolic stability. It counts as in vitro ADME, rat.
Data set [8] is described as follows: Prediction of in vivo CLH from in vitro CLint. It counts as in vitro ADME, rat. The settings on record: for Predicted in vivo CLH: rat.
The nature of data set [9]: Mouse pharmacokinetic study. It counts as in vivo, Swiss albino mice. The note with it: mice; for AUC(0-t): AUClast.
The nature of data set [10]: Liver microsomal metabolic stability.
Data set [11] can be described thus: Hepatocyte metabolic stability. The settings on record: ICR/CD-1, mouse, hepatocytes.
The nature of data set [12]: UHPLC/MS metabolite characterisation, liver microsome incubations. In kind it is in vitro ADME. The note with it: 5 minute mouse liver microsome incubation.
A short description of data set [13]: Liver microsomal binding. In kind it is in vitro ADME. The note with it: human, liver microsomes, pH 7.4.
Data set [14] has as its system microbial versus mammalian β-glucuronidases. The note with it: ref Pellock et al. 2018; cited from earlier work.
The subject of the next data set is Escherichia coli GUS. The settings on record: ref Pellock et al. 2018; cited from earlier work.
Data set [15] is described as follows: Liver microsomal binding. It counts as in vitro ADME. The note with it: ICR/CD-1, mouse, liver microsomes, pH 7.4.
Data set [16] is described as follows: UHPLC/MS metabolite characterisation, liver microsome incubations. In kind it is in vitro ADME. The note with it: 15 minute human microsome incubation.
The conditions of data set [17]: mice received ca. 0.4 mg/kg; ref Bhatt et al. 2020; cited from earlier work.
In another data set the test system is human hepatocytes. The data set can be described thus: UHPLC/MS metabolite characterisation, hepatocyte incubations. The settings on record: 120 minute human hepatocyte incubation. It counts as in vitro ADME.
Data set [18] in a line: Liver microsomal binding. In kind it is in vitro ADME. The settings on record: Sprague Dawley, rat, liver microsomes, pH 7.4.
A short description of data set [19]: Hepatocyte metabolic stability. The settings on record: Sprague Dawley, rat, hepatocytes.
Data set [20] in a line: Plasma protein binding. It counts as in vitro ADME. The settings on record: rat plasma.
Data set [21] is described as follows: Plasma protein binding. The note with it: male, CD-1, mouse, pH 7.4, Mean fu (fraction unbound), 37 °C. It counts as in vitro ADME.
The nature of data set [22]: UHPLC/MS metabolite characterisation, liver microsome incubations. In kind it is in vitro ADME. The note with it: 5 minute rat liver microsome incubation.
A short description of data set [23]: Plasma protein binding. The note with it: both, human, pH 7.4, Mean fu (fraction unbound), 37 °C. It counts as in vitro ADME.
Where [24] appears, read: ICR/CD-1, mouse, liver microsomes, pH 7.4.
[25] abbreviates: Sprague Dawley, rat, liver microsomes, pH 7.4.

Where “and” joins values, the source holds several entries; their conditions need not be identical. Identical values can stand only once. A value given as a limit tells only on which side of the number the result lay.

For the compound `C1CCc2c(c(N3CCOCC3)nc3sc4c(N5CCNCC5)nnnc4c23)C1` [UNC10201652, 4-(8-(piperazin-1-yl)-1,2,3,4-tetrahydro-[1,2,3]triazino[4′,5′:4,5]thieno[2,3-c]isoquinolin-5-yl)morpholine], the half-life at 1 μM is 66.4 min in [1]; 12 min in data set [5] (setting [24]); 7.14 min in [7] (setting [25]); 28.8 min in data set [10] (human, microsomes, pH 7.4); 11.9 min in data set [11]; 9.89 min in [19]. For the same compound, the values for the intrinsic metabolic clearance (hepatocyte CLint) at 1 μM in data set [1], in [11] and in [19] were 20.9 µL/min/1e6 cells, 116 µL/min/1e6 cells and 140 µL/min/1e6 cells, respectively. Besides, the efflux ratio at 120 min, 10 μM in data set [2] is 2.7. Also, the “Mean A-B Papp” value in the data set with Caco-2 cells (120 min, pH 7.4) is 5.88 cm/s (×10^−6). Moreover, the “Mean B-A Papp” value with Caco-2 cells (120 min, pH 7.4) is recorded as 15.9 cm/s (×10^−6). Further, the “Scaled hepatocyte CLint as % of hepatic blood flow” value in data set [3] (mouse hepatocytes) and in [8] (rat hepatocytes) was > 60 % of hepatic blood flow in each case. Further, the “Predicted in vivo CLH” value in data set [3] (scaled from hepatocyte CLint) was 75.9 mL/min/kg; in data set [3] (scaled from microsomal CLint), 42.1 mL/min/kg; in data set [4] (human, scaled from hepatocyte CLint), 4.65 mL/min/kg; in [4] (human, scaled from microsomal CLint), 3.51 mL/min/kg; in [8] (scaled from hepatocyte CLint), 59.8 mL/min/kg; in [8] (scaled from microsomal CLint), 43.5 mL/min/kg. Moreover, the “Predicted CLH as % of hepatic blood flow” value in data set [4] (human) is “approximately 22 % of hepatic blood flow”. Also, in [4] (overall figure from microsomal and hepatocyte data), the “Predicted CLH in human” value is recorded as 4 mL/min/kg. Besides, the microsomal CLint at 1 μM in data set [5] (setting [24]) was 115 µL/min/mg; in [7] (setting [25]) it was 194 µL/min/mg; in data set [10] (human, microsomes, pH 7.4), 48.1 µL/min/mg. For the same compound, the “Stability in control incubation in the absence of NADPH” value in [5] (mouse liver microsomes, without NADPH, 45 min) was “stable”; in [7] (rat liver microsomes, without NADPH, 45 min) it was “stable”; in data set [10] (human liver microsomes, without NADPH, 45 min), “stable”. Besides, in data set [6], the Local gut concentration result is given as “approximately 90 μM”. This compound also showed an AUC(0-inf) in [9] (male, Swiss albino, mouse, plasma, iv, 3 mg/kg, AUCINF, IV 3 mg/kg) of 154 ng·h/mL. The exposure AUC(0-t) is 137 ng·h/mL in data set [9] (male, Swiss albino, mouse, plasma, iv, 3 mg/kg, IV 3 mg/kg) and ~20 ng·h/mL in data set [9] (male, Swiss albino, mouse, plasma, po, 3 mg/kg, PO 3 mg/kg). The same compound displayed a Vd in data set [9] (male, Swiss albino, mouse, plasma, iv, 3 mg/kg, Vss, IV 3 mg/kg) of 16.7 L/kg. This compound also displayed a Cmax in data set [9] (male, Swiss albino, mouse, plasma, po, 3 mg/kg, Cmax, PO 3 mg/kg) of 15.2 ng/mL. The Tmax in data set [9] (male, Swiss albino, mouse, plasma, po, 3 mg/kg, Tmax, PO 3 mg/kg) amounted to 15 min. The “Tolerability / clinical signs” value in data set [9] (3 mg/kg IV and PO, with and without ABT, up to 24 h post dose) is “no clinical signs were observed”. Besides, the “Plasma concentration at the 24 h time point” value in data set [9] (IV 3 mg/kg, 24 h) is recorded as “not detectable”. For the same compound, the “Decrease in plasma clearance after ABT” value in data set [9] (IV 3 mg/kg, ABT versus no ABT) is on record as “ca. 2.5 fold”. For the same compound, the “Increase in Vss after ABT” value in data set [9] (IV 3 mg/kg, ABT versus no ABT) was “ca. 2 fold”. The “Increase in plasma half-life after ABT” value in [9] (IV 3 mg/kg, ABT versus no ABT) is given as “ca. 6 fold”. The “CL (plasma clearance)” value in data set [9] (IV 3 mg/kg, 3 mg/kg) is given as 325.0 mL/min/kg. The compound also came in with a Vss in [9] (IV 3 mg/kg, 3 mg/kg) of 16.7 L/kg. In data set [9] (PO 3 mg/kg), the “Time of Cmax post dose” value is given as 15 min. Besides, the “F (oral bioavailability, from AUClast)” value in data set [9] (PO 3 mg/kg + ABT 50 mg/kg 2 h prior) was 184%; in data set [9] (PO 3 mg/kg, 3 mg/kg), 15% and 15^c %. For the same compound, in [9] (PO 3 mg/kg, ABT versus no ABT), the “Increase in plasma Cmax after ABT” value is recorded as “greater than 10 fold”. Moreover, the “Area percentage in sample (% of total drug-related material by MS area)” value in data set [12] is given as “ca. 86%”; in data set [16], “ca. 82%”; in the data set with human hepatocytes, “ca. 48%”; in [22], “ca. 92%”. Further, the fraction unbound at 4 h, 2 μM is 0.642 in “Liver microsomal binding [13]”; 0.453 in “Liver microsomal binding [15]”; 0.618 in the data set “Liver microsomal binding [18]”; 0.0648 in “Plasma protein binding [21]”; 0.0548 in the data set “Plasma protein binding [23]”. Further, the “Specificity microbial versus mammalian β-glucuronidases” value in data set [14] is “highly specific inhibitor”. In addition, the IC50 with Escherichia coli GUS was 117 nM. Further, in [17], the “Efficacy in a mouse model” value is “good efficacy”. Further, the “Extent of plasma protein binding” value in the data set “Plasma protein binding [20]” is 89%.
`COc1ccc2c(c1)[C@]13CCCC[C@@H]1[C@H](C2)N(C)CC3` [dextromethorphan, reference compound] displayed a microsomal CLint at 1 μM in data set [10] (human, microsomes, pH 7.4) of 44.8 µL/min/mg.
With `C[C@]12CC[C@@H]3c4ccc(OS(=O)(=O)O)cc4CC[C@H]3[C@@H]1CCC2=O` [oestrone 3-sulfate, reference compound], in the data set with Caco-2 cells, the Efflux ratio came to 105.
